Measurements: publication PMC6271834, “Antiprotozoal Activity of (E)-Cinnamic N-Acylhydrazone Derivatives” (Molecules, 2014)
Where two headings read alike, the source gives them in different places.

Legend:
[1] = system: Leishmania donovani (MHOM/ET/67/L82) axenic amastigotes; assay: Leishmanicidal activity, axenic amastigotes, Alamar Blue; type: cell-based; settings: for SI (Selectivity Index for leishmanicidal activity): L-6 cells versus L. donovani; for IC50: Leishmania donovani, axenic amastigotes, strain MHOM/ET/67/L82, 72 h, means of two determinations, read-out: L. donovani IC50
Experimental: Amastigotes of Leishmania donovani strain MHOM/ET/67/L82 were grown in axenic culture at 37 °C in SM medium at pH 5.4 supplemented with 10% heat-inactivated fetal bovine serum under an atmosphere of 5% CO2 in air. One hundred microliters of culture medium with 10^5 amastigotes from axenic culture with or without the compound to test were seeded in 96-well microtiter plates. […] Each drug was tested in duplicate and each assay was repeated at least once. After 72 h of incubation the plates were inspected under an inverted microscope to assure growth of the controls and sterile conditions. Ten microliters of Alamar Blue (12.5 mg resazurin dissolved in 100 mL phosphate buffered saline) were then added to each well and the plates incubated for another 2 h. Then the plates were read in a Spectramax Gemini XS microplate fluorometer (Molecular Devices Cooperation, Sunnyvale, CA, USA) using an excitation wave length of 536 nm and an emission wave length of 588 nm. Data were analyzed using the software Softmax Pro (Molecular Devices Cooperation, Sunnyvale, CA, USA). Decrease of fluorescence (=inhibition) was expressed as percentage of the fluorescence of control cultures. For the serial drug dilution assay inhibition values were plotted against the drug concentrations and IC50 values were calculated from the sigmoidal inhibition curves.

[2] = system: Trypanosoma brucei rhodesiense (STIB900); assay: Trypanocidal activity, bloodstream forms, Alamar Blue; type: cell-based; settings: read-out: T.b. rhod. IC50
Experimental: Minimum essential medium (50 μL) supplemented according to a known procedure with 2-mercaptoethanol and 15% heat-inactivated horse serum was added to each well of a 96-well microtiter plate. Serial drug dilutions were prepared covering a range from 90 to 0.123 μg/mL. Then 10^4 bloodstream forms of T. b. rhodesiense STIB 900 in 50 μL were added to each well and the plate incubated at 37 °C under a 5% CO2 atmosphere for 72 h. Ten microliters of Alamar Blue (containing 12.5 mg resazurin dissolved in […] distilled water) were then added to each well and incubation continued for a further 2–4 h. The Alamar Blue dye is an indicator of cellular growth and/or viability. The blue, non-fluorescent, oxidized form becomes pink and fluorescent upon reduction by living cells. The plate was then read in a Spectramax Gemini XS microplate fluorometer (Molecular Devices Cooperation, Sunnyvale, CA, USA) using an excitation wavelength of 536 nm and emission wavelength of 588 nm. Fluorescence development was measured and expressed as percentage of the control. Data were transferred into the graphic programme Softmax Pro (Molecular Devices,) which calculated IC50 values. Melarsoprol was used as standard.

[3] = system: Trypanosoma brucei rhodesiense (STIB900); assay: as above; type: cell-based; settings: L-6 cells versus T. b. rhodesiense
[4] = system: L-6 rat myoblast cells; assay: Cytotoxicity to L-6 cells, Alamar Blue; type: cell-based; settings: for IC50: read-out: Cytot. L-6 Cells IC50
Experimental: Exactly 100 μL RPMI 1640 medium supplemented with 1% L-glutamine (200 mM) and 10% fetal bovine serum containing 4 × 10^4 L-6 cells (rat skeletal myoblasts) were added to each well of a 96-well microtiter plate. After 24 h, the medium was removed from all wells and replaced by 100 μL of fresh medium containing a 3-fold serial drug dilution covering a range from 200 μg/mL to 0.274 μg/mL, except for the control wells. After 72 h of incubation 10 μL of Alamar Blue (12.5 mg resazurin dissolved in 100 mL phosphate buffered saline) were added to each well and the plates were incubated for another 2 h. Then the plates were read with a Spectramax Gemini XS microplate fluorometer as described for the leishmanicidal assay. Podophyllotoxin was used as standard drug.

[5] = system: cruzipain; parameters: method as in doi:10.1590/S0103-50532010000100021; settings: cited from earlier work
[6] = system: L. major cathepsin L-like cysteine protease; parameters: method as in PMID 9371086; settings: cited from earlier work
[7] = bloodstream forms, STIB900, 72 h, means of two determinations
[8] = L6, L-6 rat skeletal myoblasts, 72 h, means of two determinations
[9] = L-6 rat skeletal myoblasts, 72 h, means of two determinations

Compound	SI (Selectivity Index for leishmanicidal activity) [1]	IC50 [1]	IC50 [2, 7]	SI (Selectivity Index for trypanocyde activity) [3]	IC50 [4, 8]	Cytot. L-6 Cells IC50 [4, 9]	IC50 ([2]; 72 h)	IC50 ([4]; Rattus norvegicus, L6, 72 h)	IC50 [5]	IC50 [6]
COc1cc(/C=N/NC(=O)/C=C/c2ccccc2)ccc1O [Compound 4]	4.4	21.7 µM	40.8 µM	2.3	95.4 µM	–	–	–	–	–
O=C(/C=C/c1ccccc1)NN=Cc1ccc(O)c(O)c1 [Compound 5, (E)-N'-(3,4-dihydroxybenzylidene)cinnamohydrazide]	1.2	11.7 µM	1.93 µM	7.3	14 µM	cytotoxic	–	–	–	–
O=C(/C=C/c1ccccc1)N/N=C/c1ccc2c(c1)OCO2 [Compound 6]	0.3	12.5 µM	89.5 µM	0.05	4.3 µM	–	–	–	–	–
COc1cc(/C=N/NC(=O)/C=C/c2ccccc2)cc(OC)c1OC [Compound 7]	34.3	3.5 µM	49.3 µM	2.4	120 µM	–	–	–	–	–
O=C(/C=C/c1ccccc1)N/N=C/c1ccc(F)cc1 [Compound 8]	>13.8	24.3 µM	284 µM	>1.2	> 335 µM	–	–	–	–	–
O=C(/C=C/c1ccccc1)N/N=C/c1ccc([N+](=O)[O-])cc1 [Compound 9]	24.1	10.6 µM	> 300 µM	–	255 µM	–	–	–	–	–
COc1ccc(/C=N/NC(=O)/C=C/c2ccccc2)cc1 [Compound 10]	–	13.8 µM	111 µM	–	> 321 µM	–	–	–	–	–
O=C(/C=C/c1ccccc1)N/N=C/c1ccc(Cl)cc1 [Compound 11, (2E)-N'-[(E)-4-Chlorobenzylidene]-3-phenylprop-2-enohydrazide]	6.0	10.8 µM	121 µM	0.5	65.5 µM	–	–	–	–	–
O=C(/C=C/c1ccccc1)N/N=C/c1ccccc1 [Compound 12, (2E)-N'-[(E)-Benzylidene]-3-phenylprop-2-enohydrazide]	3.6	43.1 µM	> 300 µM	–	157 µM	–	–	–	–	–
O=C(/C=C/c1ccccc1)N/N=C/c1ccc(O)cc1 [Compound 13]	1.1	36.7 µM	82.5 µM	0.5	40.4 µM	–	–	–	–	–
COc1ccc(/C=N/NC(=O)/C=C/c2ccccc2)cc1OC [Compound 14]	>9.3	31.2 µM	67.6 µM	>4.3	> 290 µM	–	–	–	–	–
O=C(/C=C/c1ccccc1)N/N=C/c1ccccc1O [Compound 15, (2E)-N'-[(E)-2-Hydroxybenzylidene]-3-phenylprop-2-enohydrazide]	4.1	3.61 µM	6.72 µM	2.2	14.9 µM	cytotoxic	–	–	–	–
COc1ccc(/C=N/NC(=O)/C=C/c2ccccc2)cc1O [Compound 16]	1.4	33.3 µM	80.1 µM	0.6	48.1 µM	–	–	–	–	–
Nc1nc(N)nc(Nc2ccc([As]3SCC(CO)S3)cc2)n1 (centres unmarked) [MLSP, Melarsoprol, reference compound]	–	–	–	–	–	–	0.003 µM	–	–	–
CCCCCCCCCCCCCCCCOP(=O)([O-])OCC[N+](C)(C)C [MTS, Miltefosine, reference compound]	–	0.348 µM	–	–	–	–	–	–	–	–
COc1cc([C@@H]2c3cc4c(cc3[C@H](O)[C@H]3COC(=O)[C@H]23)OCO4)cc(OC)c1OC [PPT, Podophyllotoxin, reference compound]	–	–	–	–	–	–	–	0.006 µM	–	–
(E)-1-(benzo[d][1,3]dioxol-5-yl)-3-(4-bromophenyl)prop-2-en-1-one [Compound 1]	–	–	–	–	–	–	–	–	20 µM	–
(E)-3-hydroxy-N'-((2-hydroxynaphthalen-1-yl)methylene)-7-methoxy-2-naphthohydrazide [Compound 2]	–	–	–	–	–	–	–	–	–	0.5 µM
